Data on 34 compounds can be found in ChEMBL document CHEMBL5226349, “Novel Antimicrobial 8-Hydroxyquinoline-Based Agents: Current Development, Structure-Activity Relationships, and Perspectives” (J Med Chem, 2021).

pIC50, pKi: −log10 of the molar value. ≈ marks a conversion by molar mass, not a printed value.

Experiment [1] deals with Candida. The experiment is described as follows: Antibiofilm activity against Candida. It is filed as functional.
Experiment [2] deals with Mycobacterium tuberculosis. Briefly: Antibacterial activity against Mycobacterium tuberculosis. Type of experiment: functional.
The test system of the next experiment is Chlamydia trachomatis. The experiment is described as follows: Bactericidal activity against Chlamydia trachomatis. It is filed as functional.
The test system of the next experiment is Cryptococcus neoformans. The experiment is described as follows: Antifungal activity against Cryptococcus neoformans. It is filed as functional.
Experiment [3] has as its system Enterococcus faecalis. Briefly: Antibacterial activity against Enterococcus faecalis. Type of experiment: functional.
A short description of experiment [4]: Inhibition of Aeromonas proteolytica aminopeptidase. Also on record: species or system Vibrio proteolyticus.
In the next experiment the test system is Aspergillus. Briefly: Antifungal activity against Aspergillus. Type of experiment: functional.
The test system of experiment [5] is Candida albicans. The experiment is described as follows: Antibiofilm activity against Candida albicans. Type of experiment: functional.
In experiment [6] the test system is Salmonella typhimurium. The experiment is described as follows: Antibacterial activity against Salmonella typhimurium. It is filed as functional, Salmonella enterica subsp. enterica serovar Typhimurium. To be noted: Salmonella enterica.
Experiment [7] has as its system Candida albicans. Briefly: Antifungal activity against Candida albicans. It is filed as functional.
Experiment [8] can be described thus: Inhibition of Mycobacterium tuberculosis Zmp1.
Experiment [9] relates to Bacillus subtilis. The experiment is described as follows: Antibacterial activity against Bacillus subtilis. Type of experiment: functional.
The next experiment has as its system Salmonella sp. The experiment is described as follows: Antibacterial activity against Salmonella sp. It is filed as functional.
Experiment [10] is described as follows: Inhibition of Mycobacterium tuberculosis MetAP1a.
Experiment [11] in a line: Inhibition of Mycobacterium tuberculosis MetAP1c.
The test system of a further experiment is Aspergillus niger. The experiment is described as follows: Antifungal activity against Aspergillus niger. It is filed as functional.
For experiment [12], the system named is Candida. The experiment is described as follows: Antifungal activity against Candida. It is filed as functional.
A further experiment has as its system Arthrodermataceae. The experiment is described as follows: […] activity against Arthrodermataceae. Type of experiment: functional.
Experiment [13] relates to Staphylococcus aureus. Briefly: Antibacterial activity against Staphylococcus aureus ATCC 25923. It is filed as functional.
In experiment [14] the test system is Staphylococcus aureus. Briefly: Antibacterial activity against Staphylococcus aureus ATCC 29213. It is filed as functional.
The subject of experiment [15] is Staphylococcus epidermidis. Briefly: Antibacterial activity against Staphylococcus epidermidis ATCC 12228. It is filed as functional.
The next experiment deals with Micrococcus luteus. The experiment is described as follows: Antibacterial activity against Micrococcus luteus ATCC 10240. Type of experiment: functional.
Experiment [16] has as its system Enterococcus faecalis. The experiment is described as follows: Antibacterial activity against Enterococcus faecalis ATCC 29212. It is filed as functional.
Experiment [17] relates to Enterococcus faecalis. Briefly: Antibacterial activity against Enterococcus faecalis ATCC 33186. It is filed as functional.
In experiment [18] the test system is Corynebacterium diphtheriae. The experiment is described as follows: Antibacterial activity against Corynebacterium diphtheriae NCTC 10356. It is filed as functional.
For experiment [19], the system named is Bacillus subtilis. Briefly: Antibacterial activity against Bacillus subtilis ATCC 6633. Type of experiment: functional.
In a further experiment the test system is Listeria monocytogenes. The experiment is described as follows: Antibacterial activity against Listeria monocytogenes. Type of experiment: functional.
The next experiment relates to Bacillus cereus. The experiment is described as follows: Antibacterial activity against Bacillus cereus. It is filed as functional.
The subject of the next experiment is Escherichia coli. The experiment is described as follows: Antibacterial activity against Escherichia coli ATCC 25922. It is filed as functional.
The next experiment has as its system Klebsiella pneumoniae. Briefly: Antibacterial activity against Klebsiella pneumoniae ATCC 700603. Type of experiment: functional.
Another experiment relates to Serratia marcescens. Briefly: Antibacterial activity against Serratia marcescens ATCC 8100. Type of experiment: functional.
Experiment [20] relates to Salmonella typhimurium. The experiment is described as follows: Antibacterial activity against Salmonella typhimurium ATCC 13311. To be noted: Salmonella enterica. Type of experiment: functional, Salmonella enterica subsp. enterica serovar Typhimurium.
The next experiment has as its system Salmonella enterica. Briefly: Antibacterial activity against Salmonella choleraesuis ATCC 10708. Type of experiment: functional.
A further experiment concerns Salmonella enteritidis. Briefly: Antibacterial activity against Salmonella enteritidis. Type of experiment: functional, Salmonella enterica subsp. enterica serovar Enteritidis. To be noted: Salmonella enterica.
Another experiment concerns Shigella dysenteriae. Briefly: Antibacterial activity against Shigella dysenteriae. It is filed as functional.
The test system of another experiment is Morganella morganii. The experiment is described as follows: Antibacterial activity against Morganella morganii. Type of experiment: functional.
A further experiment has as its system Citrobacter freundii. The experiment is described as follows: Antibacterial activity against Citrobacter freundii. It is filed as functional.
The test system of the next experiment is Plesiomonas shigelloides. The experiment is described as follows: Antibacterial activity against Plesiomonas shigelloides. Type of experiment: functional.
The test system of another experiment is Aeromonas hydrophila. The experiment is described as follows: Antibacterial activity against Aeromonas hydrophila. Type of experiment: functional.
The subject of a further experiment is Stutzerimonas stutzeri. The experiment is described as follows: Antibacterial activity against Pseudomonas stutzeri ATCC 17587. Type of experiment: functional.
The test system of another experiment is Shewanella putrefaciens. Briefly: Antibacterial activity against Shewanella putrefaciens ATCC 8071. Type of experiment: functional.
Experiment [21] deals with Achromobacter xylosoxidans. Briefly: Antibacterial activity against Achromobacter xylosoxidans ATCC 2706. Type of experiment: functional.
For experiment [22], the target named is Methionine aminopeptidase 1 (Homo sapiens, UniProt P53582). The experiment is described as follows: Inhibition of human MetAP1.
Experiment [23] deals with Methionine aminopeptidase 2 (Homo sapiens, UniProt P50579). The experiment is described as follows: Inhibition of human MetAP2.
Chain of Methionine aminopeptidase 2 (P50579 whole entry): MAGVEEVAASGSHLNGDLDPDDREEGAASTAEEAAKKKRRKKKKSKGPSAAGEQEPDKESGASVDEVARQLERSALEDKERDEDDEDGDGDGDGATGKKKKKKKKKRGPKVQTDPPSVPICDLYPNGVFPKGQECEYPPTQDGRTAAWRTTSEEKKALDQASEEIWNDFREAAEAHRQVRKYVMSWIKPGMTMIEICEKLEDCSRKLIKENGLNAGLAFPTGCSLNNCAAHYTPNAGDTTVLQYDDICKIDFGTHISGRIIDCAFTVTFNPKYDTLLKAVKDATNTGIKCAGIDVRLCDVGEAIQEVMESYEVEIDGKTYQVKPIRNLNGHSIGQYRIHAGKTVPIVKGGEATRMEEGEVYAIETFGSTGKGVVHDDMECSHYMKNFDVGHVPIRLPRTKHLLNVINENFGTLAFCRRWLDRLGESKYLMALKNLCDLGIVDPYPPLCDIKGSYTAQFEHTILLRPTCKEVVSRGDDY

`O=S(=O)(Nc1ccc(Cl)cc1)c1ccc(O)c2ncccc12` showed an MIC against Candida [1] of 3 µM (≈ 1 µg/mL).
In experiment [2], `OC(COc1ccccc1)COc1cccc2cccnc12` (stereo not given) displayed an MIC of 42.3 µM (≈ 12.5 µg/mL).
Take `O=C(NCCN1OCC(NC(=O)c2ccc3cccc(O)c3n2)C1=O)c1ccc2cccc(O)c2n1` (stereo not given): the minimal bactericidal concentration (MBC) against Chlamydia trachomatis was found to be 5 µM (≈ 2.44 µg/mL).
On to `Cc1ccc(S(=O)(=O)OCCn2cc(COc3cccc4cccnc34)nn2)cc1`, for which, in the experiment with Cryptococcus neoformans, the MIC80 stood at 2.36 µM (≈ 1 µg/mL).
With `O=C(CSc1nnc(COc2cccc3cccnc23)n1-c1ccccc1)Nc1nc2cc(F)ccc2s1`, in the experiment on Enterococcus faecalis [3], the MIC amounted to 28.8 µM (≈ 15.6 µg/mL).
The compound `Oc1cccc2ccc(/C=C/c3cccc(F)c3)nc12` showed an MIC in experiment [2] of 13 µM (≈ 3.45 µg/mL).
Compound `CNS(=O)(=O)c1cc(Cl)c2cccnc2c1O` showed a pKi in [4] of less than 4.00.
In turn, `COc1ccc(CN2CCN(c3nc(Nc4ccc(C#N)cc4)nc(Oc4cccc5cccnc45)n3)CC2)c(OC)c1OC` registered an MIC against Aspergillus of 9.8 µM (≈ 5.93 µg/mL).
Take `CC(=O)Oc1c(Br)cc(Br)c2ccc(C)nc12`: the MIC in the experiment on Candida albicans [5] worked out at 12.5 µM (≈ 4.49 µg/mL).
On to `O=C(CSc1nnc(COc2cccc3cccnc23)n1-c1ccccc1)Nc1nc2cc([N+](=O)[O-])ccc2s1`, for which the MIC in the experiment on Enterococcus faecalis [3] was 27.4 µM (≈ 15.6 µg/mL); against Salmonella typhimurium [6], 13.7 µM (≈ 7.8 µg/mL).
Consider `N#Cc1ccc(Nc2nc(Oc3cccc4cccnc34)nc(N3CCN(c4ccccn4)CC3)n2)cc1C(F)(F)F`, for which the MIC was 439 µM (≈ 250 µg/mL) in [2] and 9.8 µM (≈ 5.58 µg/mL) with Candida albicans [7].
In experiment [2], `O=C(NNC(c1ccc2cccnc2c1O)c1c(-c2ccccc2)[nH]c2ccccc12)c1ccncc1` (stereo not given) came in with an MIC of 103 µM (≈ 50 µg/mL).
With `O=C(NCCc1ccccc1)c1ccc2cccc(O)c2n1`, the pIC50 in [8] is less than 5.00.
In the case of `N#Cc1ccc(Nc2nc(Oc3cccc4cccnc34)nc(N3CCN(c4cccc(Cl)c4Cl)CC3)n2)cc1C(F)(F)F`, the results for the MIC (in experiment [2]; in the experiment on Aspergillus) were 19.6 µM (≈ 12.5 µg/mL) and 9.8 µM (≈ 6.25 µg/mL), respectively.
`O=C(NNC(c1ccc2cccnc2c1O)c1c(-c2ccccc2)[nH]c2ccc(Cl)cc12)c1ccncc1` (stereo not given) yielded an MIC in [2] of 24 µM (≈ 12.5 µg/mL).
`C=CCONC(=O)c1ccc2cccc(O)c2n1` gave a pIC50 in experiment [8] of 6.91.
On the same count and under the same terms, the same measure for `CONC(=O)c1ccc2cccc(O)c2n1`: 6.94.
Take `O=C(NNC(c1ccc2cccnc2c1O)c1c[nH]c2ccccc12)c1ccncc1` (stereo not given): the MIC in [2] is 122 µM (≈ 50 µg/mL).
Same read-out and setting: the value for `CC1CC(C)CN(c2nc(Nc3ccc(C#N)c(C(F)(F)F)c3)nc(Oc3cccc4cccnc34)n2)C1` (stereo not given) was 6 µM (≈ 3.12 µg/mL).
For the compound `Cc1nc2[nH]nc(/N=N/c3ccc(O)c4ncccc34)c2c(C)c1Br`, the MIC with Bacillus subtilis [9] was determined as 19.7 µM (≈ 7.81 µg/mL); in the experiment with Salmonella sp., 4.91 µM (≈ 1.95 µg/mL).
On to `CNc1ccc2cccc(O)c2n1`, for which the MIC in experiment [2] was found to be 6.4 µM (≈ 1.11 µg/mL).
`O=C(O)c1cn(C2CC2)c2cc(N3CCN(C(=O)c4ccc5cccc(O)c5n4)CC3)c(F)cc2c1=O` displayed an MBC in the experiment with Chlamydia trachomatis of 5 µM (≈ 2.51 µg/mL).
Turning to `CC(=O)Oc1c(Cl)cc(Cl)c2cccnc12`, the pIC50 in [10] and in experiment [11] was 5.31 in each case.
On to `Cc1ccccc1OCC(O)COc1cccc2cccnc12` (stereo not given), for which the MIC in experiment [2] was found to be 23.3 µM (≈ 7.21 µg/mL).
On the same count and under the same terms, the same measure for `OC(COc1ccc(Cl)cc1)COc1cccc2cccnc12` (stereo not given): 9.85 µM (≈ 3.25 µg/mL).
As to `O=C(NCCO[C@@H]1O[C@H](CO)[C@@H](O)[C@H](O)[C@H]1O)c1ccc2cccnc2c1O`, the MIC in the experiment with Candida albicans [7] is 10000 µM (≈ 3940 µg/mL).
Consider `O=C(NCCO[C@H]1O[C@H](CO)[C@@H](O)[C@H](O)[C@@H]1O)c1ccc(O)c2ncccc12`, for which the MIC with Candida albicans [7] turned out to be 5000 µM (≈ 1970 µg/mL).
`Brc1cccc(COc2cccc3cccnc23)c1`: in the experiment on Aspergillus niger, the MIC came out at 9.94 µM (≈ 3.12 µg/mL).
As for `Cc1ccc2cccc(O)c2n1` [8-HYDROXY QUINALDINE], in experiment [4], the pKi was less than 4.00.
The compound `O=C(O)c1cn(C2CC2)c2cc(N3CCNCC3)c(F)cc2c1=O` [CIPROFLOXACIN] yielded an MBC with Chlamydia trachomatis greater than 50 µM.
Turning to `Oc1c(I)cc(Cl)c2cccnc12` [CLIOQUINOL], the MIC against Candida [12] was found to be 0.206 µM (≈ 0.0629 µg/mL); in the experiment with Arthrodermataceae, 0.409 µM (≈ 0.125 µg/mL); in [2], 32.7 µM (≈ 10 µg/mL); against Staphylococcus aureus [13], 26.2 µM (≈ 8 µg/mL); against Staphylococcus aureus [14], 26.2 µM (≈ 8 µg/mL); in experiment [15], 26.2 µM (≈ 8 µg/mL). The MIC (in the experiment with Micrococcus luteus; in the experiment on Enterococcus faecalis [16]; in the experiment on Enterococcus faecalis [17]; in experiment [18]; in the experiment with Bacillus subtilis [19]; with Listeria monocytogenes) was 26.2 µM (≈ 8 µg/mL) in each case. Besides, the MIC with Bacillus cereus was 26.2 µM (≈ 8 µg/mL); in the experiment with Escherichia coli it was greater than 26.2 µM; in the experiment with Klebsiella pneumoniae, greater than 26.2 µM; against Serratia marcescens, greater than 26.2 µM; with Salmonella typhimurium [20], greater than 26.2 µM; with Salmonella enterica, greater than 26.2 µM. Moreover, the MIC in the experiment on Salmonella enteritidis, in the experiment with Shigella dysenteriae, against Morganella morganii, against Citrobacter freundii, against Plesiomonas shigelloides and in the experiment with Aeromonas hydrophila was greater than 26.2 µM throughout. Moreover, the MIC (in the experiment on Stutzerimonas stutzeri; against Shewanella putrefaciens; in [21]) was greater than 26.2 µM throughout. This compound had a pKi in [4] of less than 4.00. For the same compound, the pIC50 in experiment [10] was 5.03; in experiment [11], 4.95; in experiment [22] it was 4.07; in experiment [23], 4.09.
`Oc1ccc(Cl)c2cccnc12` [CLOXYQUIN] had a pKi in [4] of 6.80.
For the compound `O=[N+]([O-])c1ccc(O)c2ncccc12` [NITROXOLINE], in [4], the pIC50 is 4.54.
`Oc1cccc2cccnc12` [OXYQUINOLINE] gave a negative-log Ki (pKi) in experiment [4] of 6.24.
